From publication PMC8914530 (Data in Brief, 2022)
pIC50: −log10 of the molar value. Where two headings read alike, the source gives them in different places.

What was measured:
[1] = target: CYP3A4 (Homo sapiens, UniProt P08684); assay: CYP3A4 Vivid CYP450 Red fluorescent inhibition assay; type: biochemical; conditions: for CYP3A4 Hillslope: variable slope sigmoidal fit, GraphPad Prism 7.0
[2] = target: T1, CYP2B6 (Homo sapiens, UniProt P20813); assay: CYP2B6 Vivid CYP450 Blue fluorescent inhibition assay; type: biochemical; conditions: for CYP2B6 Hillslope: variable slope sigmoidal fit, GraphPad Prism 7.0; for IC50 Ratio: ratio of the IC50 values from the two CYPs, + indicates greater affinity for CYP2B6, – greater affinity for CYP3A4
T1 sequence (P20813 1-491): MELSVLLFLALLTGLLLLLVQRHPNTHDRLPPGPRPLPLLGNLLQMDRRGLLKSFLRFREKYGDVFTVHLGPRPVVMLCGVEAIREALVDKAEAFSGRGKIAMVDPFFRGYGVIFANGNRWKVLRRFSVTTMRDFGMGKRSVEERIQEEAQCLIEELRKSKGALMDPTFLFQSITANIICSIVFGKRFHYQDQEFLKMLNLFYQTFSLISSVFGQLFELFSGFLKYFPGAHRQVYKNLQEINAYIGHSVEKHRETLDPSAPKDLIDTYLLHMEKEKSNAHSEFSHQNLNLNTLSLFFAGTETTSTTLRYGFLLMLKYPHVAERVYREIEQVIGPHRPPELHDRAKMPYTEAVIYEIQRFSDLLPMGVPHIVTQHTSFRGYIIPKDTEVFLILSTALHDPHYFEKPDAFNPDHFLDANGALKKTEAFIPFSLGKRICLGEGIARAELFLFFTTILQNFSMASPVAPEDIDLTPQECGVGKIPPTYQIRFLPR

CYP3A4, sequence (P08684 whole entry): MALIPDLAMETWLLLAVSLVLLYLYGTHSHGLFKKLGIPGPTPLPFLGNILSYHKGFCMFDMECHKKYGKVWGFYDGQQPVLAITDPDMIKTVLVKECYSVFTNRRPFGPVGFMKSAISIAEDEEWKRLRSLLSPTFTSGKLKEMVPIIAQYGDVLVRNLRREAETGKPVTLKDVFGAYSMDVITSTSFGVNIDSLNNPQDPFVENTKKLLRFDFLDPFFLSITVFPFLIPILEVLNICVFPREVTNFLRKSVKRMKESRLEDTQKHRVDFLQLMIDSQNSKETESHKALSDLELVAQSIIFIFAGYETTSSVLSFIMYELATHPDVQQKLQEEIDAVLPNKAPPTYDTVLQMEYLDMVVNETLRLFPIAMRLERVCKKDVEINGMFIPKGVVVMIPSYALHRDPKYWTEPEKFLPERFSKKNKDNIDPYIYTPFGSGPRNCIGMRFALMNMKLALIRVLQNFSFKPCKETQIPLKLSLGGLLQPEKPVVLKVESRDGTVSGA

Compound	pIC50 [1]	CYP3A4 Hillslope [1]	pIC50 [2]	CYP2B6 Hillslope [2]	IC50 Ratio [2]	pIC50 ([1]; read-out: CYP3A4 IC50, CYP3A4-transfected baculosomes, concentration-response, n = 3–12)
CCCCC/C=C\C/C=C\C/C=C\C/C=C\CCCC(=O)O [Arachidonic acid]	4.86	−4.08	5.98	−0.59	–	–
CCNc1nc(Cl)nc(NC(C)C)n1 [Atrazine]	–	–	6.84	−0.34	–	–
CC(C)(c1ccc(O)cc1)c1ccc(O)cc1 [Bisphenol A]	–	–	5.07	−2.65	–	–
C[C@H](CCC(=O)O)[C@H]1CC[C@H]2[C@@H]3[C@H](O)C[C@@H]4C[C@H](O)CC[C@]4(C)[C@H]3CC[C@]12C [Chenodeoxycholic acid]	–	–	4.31	−1.32	–	–
CCOP(=S)(OCC)Oc1nc(Cl)c(Cl)cc1Cl [Chlorpyrifos]	6.55	–	8.04	−2.09	+30.4	–
CC1(C)C(C=C(Cl)Cl)C1C(=O)OC(C#N)c1cccc(Oc2ccccc2)c1 (stereo not drawn) [Cypermethrin]	–	–	2.22	−0.79	–	–
CCOP(=S)(OCC)Oc1cc(C)nc(C(C)C)n1 [Diazinon]	–	−2.52	7.12	−1.51	–	–
CC/C=C\C/C=C\C/C=C\C/C=C\C/C=C\C/C=C\CCC(=O)O [Docosahexaenoic acid]	5.29	−5.0	5.69	−1.22	–	–
O=S1OCC2C(CO1)C1(Cl)C(Cl)=C(Cl)C2(Cl)C1(Cl)Cl (stereo not drawn) [Endosulfan]	8.34	−0.261	8.52	−0.66	–	–
C[C@]12CC[C@@H]3c4ccc(O)cc4CC[C@H]3[C@@H]1CC[C@@H]2O [Estradiol]	5.56	−0.903	4.37	−0.33	–	–
CCCCC/C=C\C/C=C\CCCCCCCC(=O)O [Linoleic acid]	4.74	−4.46	5.04	−0.69	–	–
C[C@H](CCC(=O)O)[C@H]1CC[C@H]2[C@@H]3CC[C@@H]4C[C@H](O)CC[C@]4(C)[C@H]3CC[C@]12C [Lithocholic acid]	–	–	5.61	−0.51	–	–
CCCCCCCC/C=C\CCCCCCCC(=O)O [Oleic acid]	–	–	5.03	−2.45	–	–
CCCCCCCCCCCCCCCC(=O)O [Palmitic acid]	1.70	–	–	–	–	–
CCOP(=S)(OCC)Oc1ccc([N+](=O)[O-])cc1 [Parathion]	6.14	−0.094	7.59	−1.13	+28.03	–
O=C(O)c1ccccc1C(=O)O [Phthalic acid]	–	–	2.93	−1.71	–	–
C[C@]12CC[C@H]3[C@@H](CCC4=CC(=O)CC[C@@]43C)[C@@H]1CC[C@@H]2O [Testosterone]	–	–	4.04	−0.32	–	–
Clc1ccccc1CN1CCc2sccc2C1 [Ticlopidine, reference compound]	–	–	–	−0.95	–	–
Oc1cc(Cl)ccc1Oc1ccc(Cl)cc1Cl [Triclosan]	–	−1.46	6.03	−1.30	–	–
CC/C=C\C/C=C\C/C=C\CCCCCCCC(=O)O [α-Linolenic acid]	5.39	−0.701	5.14	−1.45	–	–
Nonylphenol	–	−1.02	–	−1.21	–	5.20
